Assay results: the supplement of paper PMC10307832

Key:
Assay in all cases: relative viability (nuclei count vs DMSO), 5 days (fraction); higher = more cells survive
NCI-H647 = tested on: NCI-H647
Outline: (§1)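 Nuclei were stained with Hoechst during a one-step fixation (final 0.05% Triton X-100, 1% formaldehyde, 1 ug/ml Hoechst) carried out 5 days after dosing, then counted on 4× images. The cells, lung cancer lines in 1536-well plates, had been dosed by pin tool the day after seeding with one drug alone or a fixed anchor-drug dose plus five library-drug doses (not always all listed) in √10 steps. Relative viability is the nuclei count in treated wells divided by that in vehicle wells, and each value is the median of duplicate plates.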

EKVX = tested on: EKVX
Outline: as §1

NCI-H1734 = tested on: NCI-H1734
Outline: as §1

LU99A = tested on: LU99A
Outline: as §1

EPLC-272H = tested on: EPLC-272H
Outline: as §1

ChaGo-K-1 = tested on: ChaGo-K-1
Outline: as §1

LK-2 = tested on: LK-2
Outline: as §1

NCI-H460 = tested on: NCI-H460
Outline: as §1

HCC-44 = tested on: HCC-44
Outline: as §1

NCI-H2405 = tested on: NCI-H2405
Outline: as §1

NCI-H1993 = tested on: NCI-H1993
Outline: as §1

HARA = tested on: HARA
Outline: as §1

NCI-H1650 = tested on: NCI-H1650
Outline: as §1

NCI-H1755 = tested on: NCI-H1755
Outline: as §1

SW 900 = tested on: SW 900
Outline: as §1

COR-L 105 = tested on: COR-L 105
Outline: as §1

NCI-H596 = tested on: NCI-H596
Outline: as §1

EMC-BAC-2 = tested on: EMC-BAC-2
Outline: as §1

NCI-H358 = tested on: NCI-H358
Outline: as §1

RERF-LC-KJ = tested on: RERF-LC-KJ
Outline: as §1

NCI-H522 = tested on: NCI-H522
Outline: as §1

NCI-H1792 = tested on: NCI-H1792
Outline: as §1

`Cc1cn(-c2cc(NC(=O)c3ccc(C)c(Nc4nccc(-c5cccnc5)n4)c3)cc(C(F)(F)F)c2)cn1` [Nilotinib] + N=C(N)NC(=N)NCCc1ccccc1 [Phenformin] (partner 250 µM) gave a relative viability (NCI-H647; first compound 0.001 µM) of 0.627, a relative viability (NCI-H647; first compound 0.003162 µM) of 0.628 and a relative viability (NCI-H647; first compound 0.01 µM) of 0.594. It also gave a relative viability (NCI-H647; first compound 0.03162 µM) of 0.449, a relative viability (NCI-H647; first compound 0.1 µM) of 0.336 and a relative viability (EKVX; first compound 0.001 µM) of 0.231. The relative viability (EKVX; first compound 0.003162 µM) was 0.232, the relative viability (EKVX; first compound 0.01 µM) was 0.248 and the relative viability (EKVX; first compound 0.03162 µM) was 0.214. It also gave a relative viability (EKVX; first compound 0.1 µM) of 0.236, a relative viability (NCI-H1734; first compound 0.001 µM) of 0.359 and a relative viability (NCI-H1734; first compound 0.003162 µM) of 0.396. The relative viability (NCI-H1734; first compound 0.01 µM) was 0.368, the relative viability (NCI-H1734; first compound 0.03162 µM) was 0.27 and the relative viability (NCI-H1734; first compound 0.1 µM) was 0.3. It also gave a relative viability (LU99A; first compound 0.001 µM) of 0.697, a relative viability (LU99A; first compound 0.003162 µM) of 0.907 and a relative viability (LU99A; first compound 0.01 µM) of 0.798. For the same molecule, the relative viability (LU99A; first compound 0.03162 µM) was 0.611, the relative viability (LU99A; first compound 0.1 µM) was 0.483 and the relative viability (EPLC-272H; first compound 0.001 µM) was 0.305. For the same molecule, the relative viability (EPLC-272H; first compound 0.003162 µM) was 0.283, the relative viability (EPLC-272H; first compound 0.01 µM) was 0.262 and the relative viability (EPLC-272H; first compound 0.03162 µM) was 0.234. It also gave a relative viability (EPLC-272H; first compound 0.1 µM) of 0.298, a relative viability (ChaGo-K-1; first compound 0.001 µM) of 0.469 and a relative viability (ChaGo-K-1; first compound 0.003162 µM) of 0.442. It also gave a relative viability (ChaGo-K-1; first compound 0.01 µM) of 0.473, a relative viability (ChaGo-K-1; first compound 0.03162 µM) of 0.394 and a relative viability (ChaGo-K-1; first compound 0.1 µM) of 0.315. The relative viability (LK-2; first compound 0.001 µM) was 0.441, the relative viability (LK-2; first compound 0.003162 µM) was 0.367 and the relative viability (LK-2; first compound 0.01 µM) was 0.337. The relative viability (LK-2; first compound 0.03162 µM) was 0.22, the relative viability (LK-2; first compound 0.1 µM) was 0.314 and the relative viability (NCI-H460; first compound 0.001 µM) was 0.298. It also gave a relative viability (NCI-H460; first compound 0.003162 µM) of 0.805, a relative viability (NCI-H460; first compound 0.01 µM) of 1.18 and a relative viability (NCI-H460; first compound 0.03162 µM) of 0.338. It also gave a relative viability (NCI-H460; first compound 0.1 µM) of 0.106, a relative viability (HCC-44; first compound 0.001 µM) of 0.154 and a relative viability (HCC-44; first compound 0.003162 µM) of 0.145. It also gave a relative viability (HCC-44; first compound 0.01 µM) of 0.186, a relative viability (HCC-44; first compound 0.03162 µM) of 0.179 and a relative viability (HCC-44; first compound 0.1 µM) of 0.166. For the same molecule, the relative viability (NCI-H2405; first compound 0.001 µM) was 0.381, the relative viability (NCI-H2405; first compound 0.003162 µM) was 0.357 and the relative viability (NCI-H2405; first compound 0.01 µM) was 0.397. For the same molecule, the relative viability (NCI-H2405; first compound 0.03162 µM) was 0.356, the relative viability (NCI-H2405; first compound 0.1 µM) was 0.346 and the relative viability (NCI-H1993; first compound 0.001 µM) was 0.554. The relative viability (NCI-H1993; first compound 0.003162 µM) was 0.55, the relative viability (NCI-H1993; first compound 0.01 µM) was 0.522 and the relative viability (NCI-H1993; first compound 0.03162 µM) was 0.482. The relative viability (NCI-H1993; first compound 0.1 µM) was 0.701, the relative viability (HARA; first compound 0.001 µM) was 0.402 and the relative viability (HARA; first compound 0.003162 µM) was 0.555. It also gave a relative viability (HARA; first compound 0.01 µM) of 0.613, a relative viability (HARA; first compound 0.03162 µM) of 0.29 and a relative viability (HARA; first compound 0.1 µM) of 0.322. For the same molecule, the relative viability (NCI-H1650; first compound 0.001 µM) was 0.464, the relative viability (NCI-H1650; first compound 0.003162 µM) was 0.437 and the relative viability (NCI-H1650; first compound 0.01 µM) was 0.385. The relative viability (NCI-H1650; first compound 0.03162 µM) was 0.32, the relative viability (NCI-H1650; first compound 0.1 µM) was 0.307 and the relative viability (NCI-H1755; first compound 0.001 µM) was 0.589. It also gave a relative viability (NCI-H1755; first compound 0.003162 µM) of 0.616, a relative viability (NCI-H1755; first compound 0.01 µM) of 0.564 and a relative viability (NCI-H1755; first compound 0.03162 µM) of 0.534. For the same molecule, the relative viability (NCI-H1755; first compound 0.1 µM) was 0.486, the relative viability (SW 900; first compound 0.001 µM) was 0.605 and the relative viability (SW 900; first compound 0.003162 µM) was 0.634. For the same molecule, the relative viability (SW 900; first compound 0.01 µM) was 0.612, the relative viability (SW 900; first compound 0.03162 µM) was 0.44 and the relative viability (SW 900; first compound 0.1 µM) was 0.408. It also gave a relative viability (COR-L 105; first compound 0.001 µM) of 0.428, a relative viability (COR-L 105; first compound 0.003162 µM) of 0.47 and a relative viability (COR-L 105; first compound 0.01 µM) of 0.581. For the same molecule, the relative viability (COR-L 105; first compound 0.03162 µM) was 0.409, the relative viability (COR-L 105; first compound 0.1 µM) was 0.438 and the relative viability (NCI-H596; first compound 0.001 µM) was 0.588. It also gave a relative viability (NCI-H596; first compound 0.003162 µM) of 0.697, a relative viability (NCI-H596; first compound 0.01 µM) of 0.909 and a relative viability (NCI-H596; first compound 0.03162 µM) of 0.475. For the same molecule, the relative viability (NCI-H596; first compound 0.1 µM) was 0.432, the relative viability (EMC-BAC-2; first compound 0.001 µM) was 0.474 and the relative viability (EMC-BAC-2; first compound 0.003162 µM) was 0.553. The relative viability (EMC-BAC-2; first compound 0.01 µM) was 0.491, the relative viability (EMC-BAC-2; first compound 0.03162 µM) was 0.44 and the relative viability (EMC-BAC-2; first compound 0.1 µM) was 0.484. It also gave a relative viability (NCI-H358; first compound 0.001 µM) of 0.317, a relative viability (NCI-H358; first compound 0.003162 µM) of 0.453 and a relative viability (NCI-H358; first compound 0.01 µM) of 0.394. It also gave a relative viability (NCI-H358; first compound 0.03162 µM) of 0.259, a relative viability (NCI-H358; first compound 0.1 µM) of 0.217 and a relative viability (RERF-LC-KJ; first compound 0.001 µM) of 0.406. The relative viability (RERF-LC-KJ; first compound 0.003162 µM) was 0.449, the relative viability (RERF-LC-KJ; first compound 0.01 µM) was 0.43 and the relative viability (RERF-LC-KJ; first compound 0.03162 µM) was 0.344. For the same molecule, the relative viability (RERF-LC-KJ; first compound 0.1 µM) was 0.453, the relative viability (NCI-H522; first compound 0.001 µM) was 0.591 and the relative viability (NCI-H522; first compound 0.003162 µM) was 0.613. The relative viability (NCI-H522; first compound 0.01 µM) was 0.719, the relative viability (NCI-H522; first compound 0.03162 µM) was 0.663 and the relative viability (NCI-H522; first compound 0.1 µM) was 0.56. For the same molecule, the relative viability (NCI-H1792; first compound 0.001 µM) was 0.277, the relative viability (NCI-H1792; first compound 0.003162 µM) was 0.318 and the relative viability (NCI-H1792; first compound 0.01 µM) was 0.164. For the same molecule, the relative viability (NCI-H1792; first compound 0.03162 µM) was 0.203 and the relative viability (NCI-H1792; first compound 0.1 µM) was 0.259.
